For orientation: inhibition means the drop in the measured response relative to a control, in per cent.

The target of assay [1] is T1, human recombinant serotonin (5-Hydroxytryptamine) 5-HT6 receptor (Homo sapiens, UniProt P50406).
T1 construct: expressed in transfected cells; host or cells: human HeLa cells
In words: Serotonin 5-HT6 radioligand binding assay ([3H]LSD). The following applies: HeLa cells; for inhibition at 1 µM: compound at 1 μM, read-out: Percent Inhibition of ligand binding, Serotonin (1 μM) 5-HT6. On the procedure:
Compounds of the invention were incubated with 1.5 nM [3H]Lysergic acid diethylamide (LSD) for 120 min at 37° C. […] Receptor proteins were filtered and washed, the filters were then counted to determine [3H]LSD specifically bound. Compounds were screened at 1 μM or lower, using 1% DMSO as vehicle. Biochemical assay results are presented as the percent inhibition of specific binding in Table 4.

Assay [2] concerns the target T2, human recombinant adrenergic α1D receptor (Homo sapiens, UniProt P25100).
T2 construct: expressed in transfected cells; host or cells: human embryonic kidney (HEK-293) cells
T2 sequence (P25100 1-572): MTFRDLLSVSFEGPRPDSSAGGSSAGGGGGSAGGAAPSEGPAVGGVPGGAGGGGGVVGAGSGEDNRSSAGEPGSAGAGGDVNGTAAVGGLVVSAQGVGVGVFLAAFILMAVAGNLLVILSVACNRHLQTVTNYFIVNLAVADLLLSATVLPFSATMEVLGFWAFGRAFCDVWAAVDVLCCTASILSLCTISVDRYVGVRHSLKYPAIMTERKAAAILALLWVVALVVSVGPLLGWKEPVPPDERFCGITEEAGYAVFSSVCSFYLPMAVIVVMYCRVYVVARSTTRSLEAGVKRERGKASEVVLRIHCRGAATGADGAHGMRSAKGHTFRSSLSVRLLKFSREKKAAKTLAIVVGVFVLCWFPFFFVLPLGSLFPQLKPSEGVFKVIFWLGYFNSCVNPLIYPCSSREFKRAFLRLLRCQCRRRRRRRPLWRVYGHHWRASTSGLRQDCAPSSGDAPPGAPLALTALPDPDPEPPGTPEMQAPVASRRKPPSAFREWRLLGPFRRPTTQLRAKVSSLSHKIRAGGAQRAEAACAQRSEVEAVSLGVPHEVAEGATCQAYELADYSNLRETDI
In words: Adrenergic α1D radioligand binding assay ([3H]Prozosin). The following applies: 0.6 nM [3H]Prozosin, HEK-293 cells; for inhibition at 1 µM: compound at 1 μM, read-out: Percent Inhibition of ligand binding, Adrenergic (1 μM) a1D. Here is the method: Compounds of invention were incubated with 0.6 nM [^3H]Prozosin for 60 min at 25° C. Non-specific binding was estimated in the presence of 10 μM phentolamine Receptor proteins were filtered and washed, the filters were then counted to determine [^3H]Prozosin specifically bound.

Assay [3] deals with T3, human recombinant serotonin (5-Hydroxytryptamine) 5-HT2A receptor (Homo sapiens, UniProt P28223).
T3 construct: expressed in transfected cells; host or cells: Chinese hamster ovary (CHO-K1) cells
In words: Serotonin 5-HT2A radioligand binding assay ([3H]Ketanserin). As to conditions: 0.5 nM [3H]Ketanserin, CHO-K1 cells; for inhibition at 1 µM: compound at 1 μM, read-out: Percent Inhibition of ligand binding, Serotonin (1 μM) 5-HT2A. On the procedure:
Compounds of the invention were incubated with 0.5 nM [^3H]Ketanserin for 60 min at 25° C. Non-specific binding was estimated in the presence of 1 μM Mianserin. Receptor proteins were filtered and washed, the filters were then counted to determine [^3H]Ketanserin specifically bound. Compounds were screened at 1 μM or lower, using 1% DMSO as vehicle. Biochemical assay results are presented as the percent inhibition of specific binding in Table 4.

The target in assay [4] is T4, human recombinant adrenergic α2A receptor (Homo sapiens, UniProt P08913).
T4 construct: expressed in transfected cells; host or cells: insect Sf9 cells
T4 sequence (P08913 1-465): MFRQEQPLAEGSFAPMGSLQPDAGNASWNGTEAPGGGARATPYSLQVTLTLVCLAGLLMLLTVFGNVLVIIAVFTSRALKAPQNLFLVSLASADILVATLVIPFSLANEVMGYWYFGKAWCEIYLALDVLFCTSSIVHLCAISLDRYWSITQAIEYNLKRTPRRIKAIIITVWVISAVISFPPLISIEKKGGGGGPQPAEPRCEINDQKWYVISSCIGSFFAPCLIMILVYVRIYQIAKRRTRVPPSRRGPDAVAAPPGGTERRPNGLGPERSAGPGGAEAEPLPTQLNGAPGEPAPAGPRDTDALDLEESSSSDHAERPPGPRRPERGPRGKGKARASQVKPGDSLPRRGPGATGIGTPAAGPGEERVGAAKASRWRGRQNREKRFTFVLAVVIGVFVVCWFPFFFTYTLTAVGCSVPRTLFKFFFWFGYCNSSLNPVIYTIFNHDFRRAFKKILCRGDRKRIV
In words: Adrenergic α2A radioligand binding assay ([3H]MK-912). As to conditions: 1 nM [3H]MK-912, insect Sf9 cells; for inhibition at 1 µM: compound at 1 μM, read-out: Percent Inhibition of ligand binding, Adrenergic (1 μM) a2A. On the procedure: To evaluate in radioligand binding assays the activity of compounds of the invention, human recombinant adrenergic α2A receptor expressed in insect Sf9 cells (Uhlen S et al. J. Pharmacol. Exp. Ther. 271:1558, 1994) in a modified Tris-HCl buffer (50 mM Tris-HCl, pH 7.4, 12.5 mM MgCl2, 2 mM EDTA) was used. Compounds of invention were incubated with 1 nM [^3H]MK-912 for 60 min at 25° C. MK912 is (2S-trans)-1,3,4,5′,6,6′,7,12b-octahydro-1′,3′-dimethyl-spiro[2H-benzofuro[2,3-a]quinolizine-2,4′(1′H)-pyrimidin]-2′(3′H)-one hydrochloride Non-specific binding was estimated in the presence of 10 μM WB-4101 (2-(2,6-dimethoxyphenoxyethyl)aminomethyl-1,4-benzodioxane hydrochloride). Receptor proteins were filtered and washed, the filters were then counted to determine [^3H]MK-912 specifically bound.

The structures appear in SMILES notation.

T1 sequence (P50406 whole entry): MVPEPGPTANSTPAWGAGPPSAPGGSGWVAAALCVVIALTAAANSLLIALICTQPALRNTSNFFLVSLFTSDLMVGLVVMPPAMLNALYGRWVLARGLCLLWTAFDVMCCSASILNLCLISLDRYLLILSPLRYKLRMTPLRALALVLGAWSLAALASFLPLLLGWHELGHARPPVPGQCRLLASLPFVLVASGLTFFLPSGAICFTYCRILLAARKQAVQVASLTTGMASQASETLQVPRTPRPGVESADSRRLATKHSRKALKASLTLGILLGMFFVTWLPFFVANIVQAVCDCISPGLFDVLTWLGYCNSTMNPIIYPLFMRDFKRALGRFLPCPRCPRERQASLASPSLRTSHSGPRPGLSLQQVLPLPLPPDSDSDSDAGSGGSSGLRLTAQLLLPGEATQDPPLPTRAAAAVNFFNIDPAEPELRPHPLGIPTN
T3 sequence (P28223 whole entry): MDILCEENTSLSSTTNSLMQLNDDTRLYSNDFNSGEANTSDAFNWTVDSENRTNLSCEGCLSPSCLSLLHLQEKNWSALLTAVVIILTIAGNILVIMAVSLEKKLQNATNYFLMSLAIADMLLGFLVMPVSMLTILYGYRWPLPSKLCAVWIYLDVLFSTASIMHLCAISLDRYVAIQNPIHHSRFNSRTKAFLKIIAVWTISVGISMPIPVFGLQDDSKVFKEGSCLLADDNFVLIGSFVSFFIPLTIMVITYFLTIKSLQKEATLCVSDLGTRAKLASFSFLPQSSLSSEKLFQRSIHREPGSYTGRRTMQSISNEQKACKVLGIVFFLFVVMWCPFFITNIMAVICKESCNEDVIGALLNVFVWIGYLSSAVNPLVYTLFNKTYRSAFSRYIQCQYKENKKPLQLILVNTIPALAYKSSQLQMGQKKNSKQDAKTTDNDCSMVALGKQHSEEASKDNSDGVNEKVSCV

For the compound `Cc1ccc2c(c1)c1c(n2CCc2ccc(C)nc2)CCN(CCCO)C1` [Compound 1-42, 3-(8-methyl-5-(2-(6-methylpyridin-3-yl)ethyl)-3,4-dihydro-1H-pyrido[4,3-b]indole-2(5H)-yl)propan-1-ol], the inhibition at 1 µM in assay [1] is 43%; in assay [2], 55%; in assay [3], 87%; in assay [4] it was 35%.
Regarding `Cc1ccc2c(c1)c1c(n2CCc2ccc(C)nc2)CCN(CC(F)(F)F)C1` [Compound 1-65, 8-methyl-5-(2-(6-methylpyridin-3-yl)ethyl)-2-(2,2,2-trifluoroethyl)-2,3,4,5-tetrahydro-1H-pyrido[4,3-b]indole], the inhibition at 0.1 µM was -6% in assay [1] (compound at 0.1 μM, read-out: Percent Inhibition of ligand binding, Serotonin (0.1 μM) 5-HT6); 4% in assay [2] (compound at 0.1 μM, read-out: Percent Inhibition of ligand binding, Adrenergic (0.1 μM) a1D); -10% in assay [3] (compound at 0.1 μM, read-out: Percent Inhibition of ligand binding, Serotonin (0.1 μM) 5-HT2A); 6% in assay [4] (compound at 0.1 μM, read-out: Percent Inhibition of ligand binding, Adrenergic (0.1 μM) a2A).
`Cc1ccc2c(c1)c1c(n2CCc2ccc(C(F)(F)F)nc2)CCNC1` [Compound 1-41, 8-methyl-5-(2-(6-(trifluoromethyl)pyridin-3-yl)ethyl)-2,3,4,5-tetrahydro-1H-pyrido[4,3-b]indole]: the inhibition at 1 µM is 14% in assay [1], 74% in assay [2], 66% in assay [3] and 58% in assay [4].
Regarding `Cc1ccc2c(c1)c1c(n2CC(=O)c2ccc(F)cc2)CCN(C)C1` [Compound 1-39, 2-(2,8-dimethyl-3,4-dihydro-1H-pyrido[4,3-b]indol-5(2H)-yl)-1-(4-fluorophenyl)ethanone], the inhibition at 1 µM stood at 62% in assay [1], 57% in assay [2], 98% in assay [3] and 88% in assay [4].
For `CN1CCc2c(c3cc(Cl)ccc3n2CC(=O)c2ccccc2)C1` [Compound 1-36, 2-(8-chloro-2-methyl-3,4-dihydro-1H-pyrido[4,3-b]indol-5(2H)-yl)-1-phenylethanone], the inhibition at 1 µM was 71% in assay [1], 52% in assay [2], 98% in assay [3] and 43% in assay [4].
For `Cc1ccc2c(c1)c1c(n2CCc2ccc(CCCN)nc2)CCN(C)C1` [Compound 1-40, 3-(5-(2-(2,8-dimethyl-3,4-dihydro-1H-pyrido[4,3-b]indol-5(2H)-yl)ethyl)pyridin-2-yl)propan-1-amine], the inhibition at 1 µM in assay [1] came to 24%; in assay [2], 53%; in assay [3] it was 78%; in assay [4] it was 31%.
For `Cc1ccc2c(c1)c1c(n2CCc2ccc(C)nc2)CCN(CCC#N)C1` [Compound 1-34, 3-(8-methyl-5-(2-(6-methylpyridin-3-yl)ethyl)-3,4-dihydro-1H-pyrido[4,3-b]indol-2(5H)-yl)propanenitrile], in that order: 6%, 6%, 0% and 3%.

Source of the values: patent US9255094B2, “Pyrido[4,3-B]indoles and methods of use” (Medivation Technologies, Inc., priority 2009, dated 2016).
